What follows are molecules tested against His-tagged recombinant human TrkA (Homo sapiens (Human), UniProt P04629) (assay: TrkA LanthaScreen Eu Kinase Binding Assay). Conditions: averaged IC50; TR-FRET binding, 60 min, 22° C.; read-out: TrkA Enzyme IC50.
Method: TrkA binding activity was determined in a TrkA LanthaScreen™ Eu Kinase Binding Assay. 5 nM His-tagged recombinant human TrkA (6HIS tagged cytoplasmic domain from Invitrogen, Catalog No. PV3144) was incubated with 4 nM Alexa-Fluor® Tracer 236 (Invitrogen Cat. No. PV5592), 2 nM biotinylated anti-His (Invitrogen Cat. No. PV6090), and 2 nM europium-labeled Streptavidin (Invitrogen Cat. No. PV5899), in buffer (25 mM MOPS, pH 7.5, 5 mM MgCl2, 0.005% Triton X-100). Three fold serial dilutions of compounds of the invention in DMSO were added to a final percentage of 2% DMSO. After 60-minute incubation at 22° C., the reaction was measured using the EnVision mutlimode plate reader (PerkinElmer) via TR-FRET dual wavelength detection at […]. The percent of control was calculated using a ratiometric emission factor. The IC50 values were determined by fitting a four parameter model to the percent of control data.

His-tagged recombinant human TrkA, sequence (P04629 440-796): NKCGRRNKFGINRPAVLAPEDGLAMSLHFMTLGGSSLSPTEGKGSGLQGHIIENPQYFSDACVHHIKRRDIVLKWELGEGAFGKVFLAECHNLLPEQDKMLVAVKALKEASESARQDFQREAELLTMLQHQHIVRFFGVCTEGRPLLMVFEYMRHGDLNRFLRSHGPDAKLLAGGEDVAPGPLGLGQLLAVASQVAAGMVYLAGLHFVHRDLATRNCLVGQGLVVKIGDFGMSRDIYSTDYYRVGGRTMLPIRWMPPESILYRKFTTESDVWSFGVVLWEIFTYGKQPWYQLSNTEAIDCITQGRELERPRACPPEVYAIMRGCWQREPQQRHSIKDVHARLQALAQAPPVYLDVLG

`COc1nn(-c2ccccc2)c(NC(=O)N[C@@H]2c3cc(F)c(F)cc3C(C)(C)C[C@H]2O)c1C` [Example 82, 1-((1,2-trans)-6,7-difluoro-2-hydroxy-4,4-dimethyl-1,2,3,4-tetrahydronaphthalen-1-yl)-3-(3-methoxy-4-methyl-1-phenyl-1H-pyrazol-5-yl)urea] and `CNC(=O)c1nn(-c2ccccc2)c(NC(=O)N[C@@H]2c3cc(F)c(F)cc3C(C)(C)C[C@H]2O)c1C` [Example 79, 5-(3-((1,2-trans)-6,7-difluoro-2-hydroxy-4,4-dimethyl-1,2,3,4-tetrahydronaphthalen-1-yl)ureido)-N,4-dimethyl-1-phenyl-1H-pyrazole-3-carboxamide] cannot be ordered by IC50: under 100 nM for the first, under 100 nM for the second.

`CNC(=O)c1nn(-c2ccccc2)c(NC(=O)N[C@@H]2c3ccccc3C(C)(C)[C@H](OC)[C@H]2O)c1C` [Example 156, 5-(3-((r-1,t-2,c-3)-2-hydroxy-3-methoxy-4,4-dimethyl-1,2,3,4-tetrahydronaphthalen-1-yl)ureido)-N,4-dimethyl-1-phenyl-1H-pyrazole-3-carboxamide] and `CNC(=O)c1nn(-c2ccccc2)c(NC(=O)N[C@@H]2c3ccccc3C(C)(C)[C@@H](OC)[C@H]2O)c1C` [Example 85, 5-(3-((r-1,t-2,t-3)-2-hydroxy-3-methoxy-4,4-dimethyl-1,2,3,4-tetrahydronaphthalen-1-yl)ureido)-N,4-dimethyl-1-phenyl-1H-pyrazole-3-carboxamide] cannot be ordered by IC50: under 100 nM for the first, under 100 nM for the second.

`Cc1c(-c2cnn(C)c2)nn(-c2ccccc2)c1NC(=O)NC1CCN(C)c2ccccc21` (stereo not shown) [Example 40, 1-(1′,4-dimethyl-1-phenyl-1H,1′H-[3,4′-bipyrazol]-5-yl)-3-(1-methyl-1,2,3,4-tetrahydroquinolin-4-yl)urea] and `CCCN1CCc2ccccc2C(NC(=O)Nc2c(C)c(-c3cnn(C)c3)nn2-c2ccccc2)C1` (stereo not shown) [Example 21] fall in the same range of IC50: 100 to 1000 nM for the first, 100 to 1000 nM for the second.

`CNC(=O)c1nn(-c2ccccc2)c(NC(=O)N[C@@H]2c3ccccc3C3(CC3)[C@H]2O)c1C` [Example 59, 215-(3-(trans-2′-hydroxy-2′,3′-dihydrospiro[cyclopropane-1,1′-inden]-3′-yl)ureido)-N,4-dimethyl-1-phenyl-1H-pyrazole-3-carboxamide] and `CCOc1nn(-c2ccccc2)c(NC(=O)N[C@@H]2c3ccccc3C3(CC3)[C@H]2O)c1C` (relative stereo) [Example 61, 1-(3-ethoxy-4-methyl-1-phenyl-1H-pyrazol-5-yl)-3-(trans-2′-hydroxy-2′,3′-dihydrospiro[cyclopropane-1,1-inden]-3-yl)urea] cannot be ordered by IC50: under 100 nM for the first, under 100 nM for the second.

`CCC(=O)N1CCc2ccccc2C(NC(=O)Nc2c(C)c(-c3cnn(C)c3)nn2-c2ccccc2)C1` (stereo not shown) [Example 20, 1-(1′,4-dimethyl-1-phenyl-1H,1′H-3,4′-bipyrazol-5-yl)-3-(3-propionyl-2,3,4,5-tetrahydro-1H-benzo[d]azepin-1-yl)urea] and `COCCO[C@H]1Cc2ccccc2[C@@H]1NC(=O)Nc1c(C)c(-c2cnn(C)c2)nn1-c1ccccc1` [Example 51, 1-(1′,4-dimethyl-1-phenyl-1H,1′H-[3,4′-bipyrazol]-5-yl)-3-((1S,2S)-2-(2-methoxyethoxy)-2,3-dihydro-1H-inden-1-yl)urea] fall in the same range of IC50: 100 to 1000 nM for the first, 100 to 1000 nM for the second.

`COCc1ccc2c(c1)C(NC(=O)Nc1c(C)c(=O)[nH]n1-c1ccccc1)CN(CC(F)(F)F)C2C` (stereo not shown) [Example 96, 1-(6-(methoxymethyl)-1-methyl-2-(2,2,2-trifluoroethyl)-1,2,3,4-tetrahydroisoquinolin-4-yl)-3-(4-methyl-5-oxo-2-phenyl-2,5-dihydro-1H-pyrazol-3-yl)urea] and `COCc1ccc2c(c1)C(NC(=O)Nc1c(C)c(C(N)=O)nn1-c1ccccc1)CN(CC(F)(F)F)C2C` (stereo not shown) [Example 110, 5-(3-(6-(methoxymethyl)-1-methyl-2-(2,2,2-trifluoroethyl)-1,2,3,4-tetrahydroisoquinolin-4-yl)ureido)-4-methyl-1-phenyl-1H-pyrazole-3-carboxamide] cannot be ordered by IC50: under 100 nM for the first, under 100 nM for the second.

`COCCO[C@H]1Cc2ccccc2[C@@H]1NC(=O)Nc1c2c(nn1-c1ccccc1)CCC2` [Example 48, 1-((1S,2S)-2-(2-methoxyethoxy)-2,3-dihydro-1H-inden-1-yl)-3-(2-phenyl-2,4,5,6-tetrahydrocyclopenta[c]pyrazol-3-yl)urea] and `CC(=O)N1Cc2ccccc2C(NC(=O)Nc2c3c(nn2-c2ccccc2)CCC3)C1` (stereo not shown) [Example 24, 1-(2-acetyl-1,2,3,4-tetrahydroisoquinolin-4-yl)-3-(2-phenyl-2,4,5,6-tetrahydrocyclopenta[c]pyrazol-3-yl)urea] fall in the same range of IC50: 100 to 1000 nM for the first, 100 to 1000 nM for the second.

`COC(=O)c1ccc2c(c1)[C@@H](NC(=O)Nc1c(C)c(C)nn1-c1ccccc1)[C@H](O)CC2(C)C` (relative stereo) [Example 99, trans-methyl 8-(3-(3,4-dimethyl-1-phenyl-1H-pyrazol-5-yl)ureido)-7-hydroxy-5,5-dimethyl-5,6,7,8-tetrahydronaphthalene-2-carboxylate] and `COCCOc1nn(-c2ccccc2)c(NC(=O)N[C@@H]2c3ccccc3C(C)(C)C[C@H]2O)c1C` [Example 147, 1-((1R,2R)-2-hydroxy-4,4-dimethyl-1,2,3,4-tetrahydronaphthalen-1-yl)-3-(3-(2-methoxyethoxy)-4-methyl-1-phenyl-1H-pyrazol-5-yl)urea] cannot be ordered by IC50: under 100 nM for the first, under 100 nM for the second.

`Cc1c(NC(=O)N[C@@H]2c3ccccc3C(C)(C)C[C@H]2O)n(-c2ccccc2)[nH]c1=O` (relative stereo) [Example 95, 1-(trans-2-hydroxy-4,4-dimethyl-1,2,3,4-tetrahydronaphthalen-1-yl)-3-(4-methyl-5-oxo-2-phenyl-2,5-dihydro-1H-pyrazol-3-yl)urea] and `Cc1c(OCCN(C)C)nn(-c2ccccc2)c1NC(=O)N[C@@H]1c2ccccc2C(C)(C)C[C@H]1O` [Example 134, 1-(3-(2-(dimethylamino)ethoxy)-4-methyl-1-phenyl-1H-pyrazol-5-yl)-3-((1R,2R)-2-hydroxy-4,4-dimethyl-1,2,3,4-tetrahydronaphthalen-1-yl)urea] cannot be ordered by IC50: under 100 nM for the first, under 100 nM for the second.

`Cc1c(-c2ccc(=O)n(C)c2)nn(-c2ccccc2)c1NC(=O)N[C@@H]1c2ccccc2C(C)(C)C[C@H]1O` (relative stereo) [Example 106, 1-(trans-2-hydroxy-4,4-dimethyl-1,2,3,4-tetrahydronaphthalen-1-yl)-3-(4-methyl-3-(1-methyl-6-oxo-1,6-dihydropyridin-3-yl)-1-phenyl-1H-pyrazol-5-yl)urea] and `CO[C@H]1[C@@H](O)[C@H](NC(=O)Nc2c(C)c(-c3cnn(C)c3)nn2-c2ccccc2)c2ccccc2C1(C)C` [Example 86, 1-(1′,4-dimethyl-1-phenyl-1H,1′H-[3,4′-bipyrazol]-5-yl)-3-((r-1,t-2,t-3)-2-hydroxy-3-methoxy-4,4-dimethyl-1,2,3,4-tetrahydronaphthalen-1-yl)urea] cannot be ordered by IC50: under 100 nM for the first, under 100 nM for the second.

`Cc1c(-c2cnn(C)c2)nn(-c2ccccc2)c1NC(=O)N[C@@H]1c2cc(F)c(F)cc2C(C)(C)C[C@H]1O` [Example 80, 1-((1,2-trans)-6,7-difluoro-2-hydroxy-4,4-dimethyl-1,2,3,4-tetrahydronaphthalen-1-yl)-3-(1′,4-dimethyl-1-phenyl-1H,1′H-[3,4′-bipyrazol]-5-yl)urea] and `Cc1ncc(-c2nn(-c3ccccc3)c(NC(=O)N[C@@H]3c4ccccc4CC[C@H]3O)c2C)cn1` (relative stereo) [Example 118, 1-(trans-2-hydroxy-1,2,3,4-tetrhydronaphthalen-1-yl)-3-(4-methyl-3-(2-methylpyrimidin-5-yl)-1-phenyl-1H-pyrazol-5-yl)urea] cannot be ordered by IC50: under 100 nM for the first, under 100 nM for the second.

`CNC(=O)c1nn(-c2ccccc2)c(NC(=O)NC2CN(CC(F)(F)F)Cc3ccccc32)c1C` (stereo not shown) [Example 29, N,4-dimethyl-1-phenyl-5-(3-(2-(2,2,2-trifluoroethyl)-1,2,3,4-tetrahydroisoquinolin-4-yl)ureido)-1H-pyrazole-3-carboxamide] and `Cc1nn(-c2ccccc2)c(NC(=O)NC2CN(CC(F)(F)F)Cc3ccccc32)c1C(N)=O` (stereo not shown) [Example 31, 3-methyl-1-phenyl-5-(3-(2-(2,2,2-trifluoroethyl)-1,2,3,4-tetrahydroisoquinolin-4-yl)ureido)-1H-pyrazole-4-carboxamide] cannot be ordered by IC50: under 100 nM for the first, under 100 nM for the second.

Compared with `CCN1CCC(NC(=O)Nc2c(C)c(OC)nn2-c2ccccc2)c2cc(Cl)ccc21` (stereo not shown) [Example 46, 1-(6-chloro-1-ethyl-1,2,3,4-tetrahydroquinolin-4-yl)-3-(3-methoxy-4-methyl-1-phenyl-1H-pyrazol-5-yl)urea], `Cc1c(-c2ccc(=O)n(C)c2)nn(-c2ccccc2)c1NC(=O)NC1CCN(C)c2c(F)cccc21` (stereo not shown) [Example 43, 1-(8-fluoro-1-methyl-1,2,3,4-tetrahydroquinolin-4-yl)-3-(4-methyl-3-(1-methyl-6-oxo-1,6-dihydropyridin-3-yl)-1-phenyl-1H-pyrazol-5-yl)urea] is higher in IC50: under 100 nM for the first, 100 to 1000 nM for the second. The first is the more potent here.

Compared with `Cc1c(-c2cnn(C)c2)nn(-c2ccccc2)c1NC(=O)Nc1cn(CC(F)(F)F)c(=O)c2ccccc12` [Example 38, 1-(1′,4-dimethyl-1-phenyl-1H,1′H-[3,4′-bipyrazol]-5-yl)-3-(1-oxo-2-(2,2,2-trifluoroethyl)-1,2-dihydroisoquinolin-4-yl)urea], `Cc1ncc(-c2nn(-c3ccccc3)c(NC(=O)NC3CN(CC(F)(F)F)C(=O)c4ccccc43)c2C)cn1` (stereo not shown) [Example 130, 1-(4-methyl-3-(2-methylpyrimidin-5-yl)-1-phenyl-1H-pyrazol-5-yl)-3-(1-oxo-2-(2,2,2-trifluoroethyl)-1,2,3,4-tetrahydroisoquinolin-4-yl)urea] is lower in IC50: 100 to 1000 nM for the first, under 100 nM for the second. The second is the more potent here.

— US10351575B2, “Bicyclic urea, thiourea, guanidine and cyanoguanidine compounds useful for the treatment of pain” (Array BioPharma Inc., priority 2012, dated 2019)
